Reference: ChEMBL document CHEMBL3297666, “Antibacterial inhibitors of Gram-positive thymidylate kinase: structure-activity relationships and chiral preference of a new hydrophobic binding region” (J Med Chem, 2014)
The source made the active and inactive calls. The calls are words filed in the database; no cut-off is given here.

How the values were obtained:
[1] = Octanol-sodium phosphate buffer partition coefficient, log D of the compound at pH 7.4 by shake-flask method
[2] = Inhibition of Staphylococcus aureus TMK assessed as decrease in ATP production using dTDP and ADP as substrate after 3.5 hrs by luciferin/luciferase based luminescence analysis
[3] = Fraction unbound in human plasma at 10 uM after 5 hrs by rapid equilibrium dialysis method; assay type: ADME, cell-free
Staphylococcus aureus [4] = experiment: Antibacterial activity against methicillin-resistant and quinolone-resistant Staphylococcus aureus ARC 517 assessed as growth inhibition by broth microdilution method; assay type: functional
Staphylococcus aureus [5] = experiment: Antibacterial activity against Staphylococcus aureus ARC 516 assessed as growth inhibition by broth microdilution method; assay type: functional
[6] = Retention time of the compound by LC-MS method; assay type: physicochemical
Staphylococcus aureus [7] = experiment: Antibacterial activity against Staphylococcus aureus assessed as bacterial killing; assay type: functional, organism-based
Staphylococcus aureus [8] = experiment: Antibacterial activity against Staphylococcus aureus assessed as log cell killing at greater than and equals to 0.5x MIC measured after 4 hrs; assay type: functional
Staphylococcus aureus [9] = experiment: Antibacterial activity against Staphylococcus aureus assessed as bacterial killing at 0.5 to 1x MIC measured after 24 hrs; assay type: functional, organism-based
[10] = Fraction unbound in mouse plasma at 10 uM after 5 hrs by rapid equilibrium dialysis method; assay type: ADME, cell-free
[11] = In vivo clearance in Wistar rat at 5 to 10 mg/kg, iv administered as bolus dose; assay type: ADME, organism-based; parameters: dose 5-10 mg/kg, route intravenous

Retention_time [6] [min]	SMILES	logD [1]	IC50 [2] [nM]	MIC (Staphylococcus aureus [4]) [µg/mL]	MIC (Staphylococcus aureus [5]) [µg/mL]	other results
	CCC[C@@H](c1ccc(C(=O)O)c(Oc2cccc(Cl)c2)c1OC)N1CCC[C@H](n2cc(C)c(=O)[nH]c2=O)C1	0.13	4	4	8	fraction unbound at 5 h, 10 µM [3]: 0.065
	Cc1cn([C@H]2CCCN(Cc3ccc(C(=O)O)c(Oc4cccc(Cl)c4)c3)C2)c(=O)[nH]c1=O		73	32	32	
2.88	O=Cc1cccc(Oc2cccc(Cl)c2)c1F					
2.3	Cc1c(CN2CCC[C@H](n3cc(C)c(=O)[nH]c3=O)C2)cccc1Oc1cc(F)cc(Cl)c1		9260			
	CC[C@H](c1ccc(C(=O)O)c(Oc2cccc(Cl)c2)c1)N1CCC[C@H](n2cc(C)c(=O)[nH]c2=O)C1	0.22	14	2	2	Activity (Staphylococcus aureus [7]): Dose-dependent effect; LCK (Staphylococcus aureus [8]): >3; Activity (Staphylococcus aureus [9]): inactive
	CCC[C@H](c1ccc(C(=O)O)c(Oc2cccc(Cl)c2)c1)N1CCC[C@H](n2cc(C)c(=O)[nH]c2=O)C1		8	1	1	
	Cc1cn([C@H]2CCCN(Cc3cccc(Oc4cccc(Cl)c4)c3)C2)c(=O)[nH]c1=O		1170			
1.99	Cc1cn([C@H]2CCCN(C(CC(C)C)c3ccc(C(=O)O)c(Oc4cccc(Cl)c4)c3F)C2)c(=O)[nH]c1=O (stereo partly drawn)					
2.29	CCC(c1ccc(C(=O)O)c(Oc2cccc(Cl)c2)c1OC)N1CCC[C@H](n2cc(C)c(=O)[nH]c2=O)C1 (stereo partly drawn)					
	Cc1cn([C@H]2CCCN(Cc3cccc(Oc4cc(F)cc(Cl)c4)c3)C2)c(=O)[nH]c1=O		2060			
2.34	Cc1cn([C@H]2CCCN(Cc3cccc(Oc4cc(F)cc(Cl)c4)c3Br)C2)c(=O)[nH]c1=O		581			
2.32	CCOc1c(CN2CCC[C@H](n3cc(C)c(=O)[nH]c3=O)C2)cccc1Oc1cc(F)cc(Cl)c1		625			
3.28	COc1c(C=O)ccc(Br)c1Oc1cccc(Cl)c1					
3.24	CC(C)CC(O)c1ccc(Br)c(F)c1F (stereo not drawn)					

SMILES	Retention_time [6] [min]	logD [1]	IC50 [2] [nM]	MIC (Staphylococcus aureus [4]) [µg/mL]	MIC (Staphylococcus aureus [5]) [µg/mL]	other results
COc1c(CN2CCC[C@H](n3cc(C)c(=O)[nH]c3=O)C2)ccc(C(=O)O)c1Oc1cccc(Cl)c1	2.17	-0.77	10	16	8	
Cc1cn([C@H]2CCCN(Cc3ccc(C(=O)O)c(Oc4cccc(Cl)c4)c3F)C2)c(=O)[nH]c1=O	1.89	-0.59	12	16	32	
CCC[C@@H](c1ccc(C(=O)O)c(Oc2cccc(Cl)c2)c1F)N1CCC[C@H](n2cc(C)c(=O)[nH]c2=O)C1	1.86	0.51	3	0.5	1	fraction unbound at 5 h, 10 µM [10]: 0.007; clearance [11]: 18 mL/min/kg; fraction unbound at 5 h, 10 µM [3]: 0.007
CC[C@H](c1ccc(C(=O)O)c(Oc2cccc(Cl)c2)c1F)N1CCC[C@H](n2cc(C)c(=O)[nH]c2=O)C1	1.75	0.12	2	2	2	clearance [11]: 119 mL/min/kg; fraction unbound at 5 h, 10 µM [3]: < 0.01
CCC[C@H](c1ccc(C(=O)O)c(Oc2cccc(Cl)c2)c1F)N1CCC[C@H](n2cc(C)c(=O)[nH]c2=O)C1	1.84	0.53	6	1	2	clearance [11]: 64 mL/min/kg; fraction unbound at 5 h, 10 µM [3]: < 0.01
